Data reported in patent US9464076B2, “Benzothiophene derivative” (Daiichi Sankyo Company, Limited, priority 2013, dated 2016).
Counter-ions that a name gives are not always drawn.

Tests used:
Male C57BL/6 Cr mice [1] = experiment: Test on suppression of phencyclidine-induced hyperlocomotion in mice; format: in vivo, mouse; conditions: locomotor activity, test compound 10 mg/kg oral, phencyclidine 5 mg/kg s.c. approx. 1 hour later, measured for 1 hour; for inhibition in vivo at 10 mg/kg: Mus musculus, po, 1 h
Method: Male C57BL/6 Cr mice (Japan SLC, Inc.) (8 weeks old) were used in the experiment. A test compound was suspended at 1 mg/mL in a 0.5% hydroxypropylcellulose solution to prepare a suspension for administration. The suspension of the test compound or a solvent (0.5% hydroxypropylcellulose solution) was orally administered at a dose of 10 mL/kg to each mouse. After the administration, the mouse was immediately placed in a locomotor activity measurement apparatus (Muromachi Kikai Co., Ltd., locomotor activity measurement system SUPERMEX). Approximately 1 hour later, phencyclidine (5 mg/10 mL/kg) or a solvent (10 mL/kg saline) was subcutaneously administered to the mouse. The locomotor activity was measured from immediately after the subcutaneous administration to 1 hour later.
Percent inhibition exceeding 100 means that when the activity of the phencyclidine administration control group was defined as 100, the activity of the group given a test compound was lower than that of the solvent administration control group.

Male C57BL/6 Cr mice [2] = experiment: as above; format: in vivo; conditions: Mus musculus, oral, calculated by the linear regression method
[3] = target: PDE10A (H-PDE10A2, Human Phosphodiesterase 10A2) (Homo sapiens (Human), UniProt Q9Y233); experiment: Measurement of PDE10A inhibitory activity-1 (3H-cAMP, recombinant enzyme); format: biochemical; conditions: H-PDE10A2, 64 nM cAMP, 25° C., 2 hours
Chain of PDE10A (H-PDE10A2, Human Phosphodiesterase 10A2) (Q9Y233 267-1055): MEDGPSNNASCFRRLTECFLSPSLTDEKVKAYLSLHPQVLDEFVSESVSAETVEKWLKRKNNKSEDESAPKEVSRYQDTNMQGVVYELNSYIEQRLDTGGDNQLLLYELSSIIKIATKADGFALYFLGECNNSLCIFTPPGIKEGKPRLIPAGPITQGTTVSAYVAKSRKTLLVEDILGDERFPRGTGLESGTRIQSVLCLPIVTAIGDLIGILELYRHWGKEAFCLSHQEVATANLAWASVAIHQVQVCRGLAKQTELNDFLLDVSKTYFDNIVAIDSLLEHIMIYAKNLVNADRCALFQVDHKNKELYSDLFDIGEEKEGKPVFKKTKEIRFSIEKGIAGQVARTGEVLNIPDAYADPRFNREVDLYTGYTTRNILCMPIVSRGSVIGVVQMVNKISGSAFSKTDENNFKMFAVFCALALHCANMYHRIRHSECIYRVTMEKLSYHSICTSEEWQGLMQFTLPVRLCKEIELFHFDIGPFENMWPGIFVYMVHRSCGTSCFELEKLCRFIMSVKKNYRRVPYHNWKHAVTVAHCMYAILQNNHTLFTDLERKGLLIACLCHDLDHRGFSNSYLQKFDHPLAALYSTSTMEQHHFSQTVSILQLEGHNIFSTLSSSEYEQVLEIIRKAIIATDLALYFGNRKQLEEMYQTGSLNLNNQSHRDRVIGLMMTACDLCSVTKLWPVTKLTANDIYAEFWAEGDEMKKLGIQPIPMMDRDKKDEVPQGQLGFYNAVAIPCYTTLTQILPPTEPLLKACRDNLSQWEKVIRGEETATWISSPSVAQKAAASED
Method: To a solution containing 20 mM Tris-HCl (pH 7.5), 1 mM MgCl2, 100 μM EDTA, 330 μg/ml bovine serum albumin, 50 kU/ml 5′-nucleotidase, 0.1 μCi ^3H-cAMP (64 nM cAMP), and PDE10A (H-PDE10A2, Human Phosphodiesterase 10A2, Scottish Biomedical), a test compound was added, and the mixture was reacted at 25° C. for 2 hours. To the reaction solution, QAE-Sephadex (17-0190-01, GE Healthcare Japan Corp.) suspended in 10 mM HEPES-Na (pH 7.0) (hereinafter, also referred to as a “QAE-Sephadex suspension”) was added, and the mixture was shaken for 1 minute and left standing for 5 minutes to obtain a supernatant. To the supernatant, a QAE-Sephadex suspension was further added, and the mixture was shaken for 1 minute and left standing for 5 minutes. Then, the obtained supernatant was transferred to LumaPlate (PerkinElmer, Inc.) and assayed using a radiation counter (TopCount NXT, PerkinElmer, Inc.).
The value of the sample reacted without the addition of both a test compound and PDE10A was defined as 0%, and the value of the sample reacted in the presence of PDE10A without the addition of a test compound was defined as 100%.

PDE10A = PDE10A (Homo sapiens (Human), UniProt Q9Y233); experiment: Measurement of PDE10A inhibitory activity-2 (PDE10A fraction prepared from MOLT-4 cells); format: biochemical; conditions: PDE10A fraction from MOLT-4 cells (peak around 250 mM NaCl)
Chain of PDE10A (Q9Y233 whole entry): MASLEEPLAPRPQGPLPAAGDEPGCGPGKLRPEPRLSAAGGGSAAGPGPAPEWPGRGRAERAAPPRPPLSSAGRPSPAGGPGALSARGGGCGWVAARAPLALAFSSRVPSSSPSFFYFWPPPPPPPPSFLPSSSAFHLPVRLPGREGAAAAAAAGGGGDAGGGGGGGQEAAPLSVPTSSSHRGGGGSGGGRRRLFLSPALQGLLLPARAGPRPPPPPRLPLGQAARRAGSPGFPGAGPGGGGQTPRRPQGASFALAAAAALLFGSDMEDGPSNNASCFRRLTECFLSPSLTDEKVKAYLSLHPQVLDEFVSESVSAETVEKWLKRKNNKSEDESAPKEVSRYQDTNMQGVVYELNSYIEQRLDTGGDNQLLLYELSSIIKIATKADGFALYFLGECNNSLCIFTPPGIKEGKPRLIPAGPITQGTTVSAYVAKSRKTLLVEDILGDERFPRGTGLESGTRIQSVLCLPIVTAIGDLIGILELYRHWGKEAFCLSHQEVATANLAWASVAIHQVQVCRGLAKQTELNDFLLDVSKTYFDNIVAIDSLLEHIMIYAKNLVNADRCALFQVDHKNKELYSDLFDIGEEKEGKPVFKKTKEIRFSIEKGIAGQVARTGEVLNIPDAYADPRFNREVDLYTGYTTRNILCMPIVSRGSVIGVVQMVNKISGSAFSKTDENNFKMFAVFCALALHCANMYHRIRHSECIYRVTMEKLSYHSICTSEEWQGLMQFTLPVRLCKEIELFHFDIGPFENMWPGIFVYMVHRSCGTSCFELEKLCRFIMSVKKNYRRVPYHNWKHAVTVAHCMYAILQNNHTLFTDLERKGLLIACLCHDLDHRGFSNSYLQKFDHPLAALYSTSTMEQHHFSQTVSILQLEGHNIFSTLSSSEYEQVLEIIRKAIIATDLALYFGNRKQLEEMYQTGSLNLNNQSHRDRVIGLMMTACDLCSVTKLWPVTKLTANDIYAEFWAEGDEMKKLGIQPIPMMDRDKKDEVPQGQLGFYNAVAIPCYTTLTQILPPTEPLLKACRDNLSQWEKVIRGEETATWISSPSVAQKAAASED
How it was run: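 Enzyme source was a PDE10A-containing fraction from MOLT-4 cell soluble extract, resolved by HiTrap Q anion exchange with a 0–0.8 M NaCl gradient and selected by cAMP-hydrolysing activity. IC50 determined with this fraction by the same procedure as the preceding PDE10A assay.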

| IC50 (PDE10A) [nM] | SMILES | inhibition in vivo at 10 mg/kg (Male C57BL/6 Cr mice [1]) [%] | ED50 (Male C57BL/6 Cr mice [2]) [mg/kg] | % inhibition (Male C57BL/6 Cr mice [1]) [%] | further results |
| --- | --- | --- | --- | --- | --- |
|  | COCc1ccc(C(C)=O)c2sc(C(=O)Nc3ccc4c(CN5CCOCC5)cccc4n3)c(C)c12.Cl [Example 61, 7-Acetyl-4-(methoxymethyl)-3-methyl-N-(5-(morpholinomethyl)quinolin-2-yl)benzo[b]thiophene-2-carboxamide hydrochloride] | 122 | 5.7 |  |  |
| 0.35 | COCc1ccc(C(C)=O)c2sc(C(=O)Nc3cc(CN4CC[C@@H](O)C4)c4ccccc4n3)c(C)c12 [Example 39, (R)-7-Acetyl-N-(4-((3-hydroxypyrrolidin-1-yl)methyl)quinolin-2-yl)-4-(methoxymethyl)-3-methylbenzo[b]thiophene-2-carboxamide] | 103 | 3.1 |  | IC50 [3]: 0.41 nM |
| 0.23 | COCc1ccc(C(C)=O)c2sc(C(=O)Nc3ccc4c(CS(C)(=O)=O)cccc4n3)c(C)c12 [Example 110, 7-Acetyl-4-(methoxymethyl)-3-methyl-N-(5-((methylsulfonyl)methyl)quinolin-2-yl)benzo[b]thiophene-2-carboxamide hydrochloride] | 76 |  |  | IC50 ([3]; hydrochloride): 1.4 nM |
|  | COCc1ccc(C(C)=O)c2sc(C(=O)Nc3ccc4c(CO)cccc4n3)c(C)c12.Cc1ccc(S(=O)(=O)O)cc1 [Example 81, 7-Acetyl-N-(5-(hydroxymethyl)quinolin-2-yl)-4-(methoxymethyl)-3-methylbenzo[b]thiophene-2-carboxamide p-toluenesulfonate] |  | 3.3 | 122 |  |
| 0.76 | COCc1ccc(C(C)=O)c2sc(C(=O)Nc3ccc4c(CN5CC[C@@H](O)C5)cccc4n3)c(C)c12 [Example 64, (R)-7-Acetyl-N-(5-((3-hydroxypyrrolidin-1-yl)methyl)quinolin-2-yl)-4-(methoxymethyl)-3-methylbenzo[b]thiophene-2-carboxamide dihydrochloride] | 109 | 7.2 |  |  |
|  | Br.COCc1ccc(C(C)=O)c2sc(C(=O)Nc3ccc4c(CS(C)(=O)=O)cccc4n3)c(C)c12 [Example 112, 7-Acetyl-4-(methoxymethyl)-3-methyl-N-(5-((methylsulfonyl)methyl)quinolin-2-yl)benzo[b]thiophene-2-carboxamide hydrobromide] |  |  | 57 | IC50 ([3]; hydrobromide): 0.84 nM |
|  | COCc1cccc2nc(NC(=O)c3sc4c(C(C)=O)ccc(COC)c4c3C)ccc12 [Example 69, 7-Acetyl-4-(methoxymethyl)-N-(5-(methoxymethyl)quinolin-2-yl)-3-methylbenzo[b]thiophene-2-carboxamide methanesulfonate] |  | 3 | 81 | IC50 (PDE10A; methanesulfonate): 0.38 nM |
| 0.23 | COCc1ccc(C(C)=O)c2sc(C(=O)Nc3cc(CN4CC[C@H](O)C4)c4ccccc4n3)c(C)c12 [Example 38, (S)-7-Acetyl-N-(4-((3-hydroxypyrrolidin-1-yl)methyl)quinolin-2-yl)-4-(methoxymethyl)-3-methylbenzo[b]thiophene-2-carboxamide] | 88 | 7 |  | IC50 [3]: 0.42 nM |
|  | COCc1cccc2nc(NC(=O)c3sc4c(C(C)=O)ccc(COC)c4c3C)ccc12.Cl [Example 68, 7-Acetyl-4-(methoxymethyl)-N-(5-(methoxymethyl)quinolin-2-yl)-3-methylbenzo[b]thiophene-2-carboxamide hydrochloride] |  | 3.6 | 121 | IC50 ([3]; hydrochloride): 1.9 nM; IC50 (PDE10A; hydrochloride): 0.93 nM |
|  | COCc1ccc(C(C)=O)c2sc(C(=O)Nc3ccc4c(C(=O)N5CC(OC)C5)cccc4n3)c(C)c12.Cc1ccc(S(=O)(=O)O)cc1 [Example 106, 7-Acetyl-N-(5-((3-methoxyazetidin-1-yl)carbonyl)quinolin-2-yl)-4-(methoxymethyl)-3-methylbenzo[b]thiophene-2-carboxamide p-toluenesulfonate] |  | 2.2 | 87 | IC50 (PDE10A; p-toluenesulfonate): 0.5 nM |
|  | COCc1ccc(C(C)=O)c2sc(C(=O)Nc3cc(CN4CC[C@@H](O)C4)c4ccccc4n3)c(C)c12 [Example 41, (R)-7-Acetyl-N-(4-((3-hydroxypyrrolidin-1-yl)methyl)quinolin-2-yl)-4-(methoxymethyl)-3-methylbenzo[b]thiophene-2-carboxamide p-toluenesulfonate] |  |  |  | IC50 ([3]; p-toluenesulfonate): 1.3 nM |
|  | COCc1cccc2nc(NC(=O)c3sc4c(C(C)=O)ccc(COC)c4c3C)ccc12 [Example 67, 7-Acetyl-4-(methoxymethyl)-N-(5-(methoxymethyl)quinolin-2-yl)-3-methylbenzo[b]thiophene-2-carboxamide] |  |  |  | IC50 [3]: 1.8 nM |
|  | COCc1ccc(C(C)=O)c2sc(C(=O)Nc3ccc4c(C(=O)N5CC(OC)C5)cccc4n3)c(C)c12 [Example 105, 7-Acetyl-N-(5-((3-methoxyazetidin-1-yl)carbonyl)quinolin-2-yl)-4-(methoxymethyl)-3-methylbenzo[b]thiophene-2-carboxamide methanesulfonate] |  |  |  | IC50 ([3]; methanesulfonate): 2.1 nM |
|  | COCc1ccc(C(C)=O)c2sc(C(=O)Nc3ccc4c(C(=O)N5CC(OC)C5)cccc4n3)c(C)c12 [Example 103, 7-Acetyl-N-(5-((3-methoxyazetidin-1-yl)carbonyl)quinolin-2-yl)-4-(methoxymethyl)-3-methylbenzo[b]thiophene-2-carboxamide hydrochloride] |  |  |  | IC50 ([3]; hydrochloride): 0.31 nM |
| 0.3 | COCc1ccc(C(C)=O)c2sc(C(=O)Nc3ccc4c(C(=O)N5CC(OC)C5)cccc4n3)c(C)c12 [Example 102, 7-Acetyl-N-(5-((3-methoxyazetidin-1-yl)carbonyl)quinolin-2-yl)-4-(methoxymethyl)-3-methylbenzo[b]thiophene-2-carboxamide] |  |  | 120 | IC50 [3]: 0.7 nM |
